Entries after “also recorded” stand apart in the source; their conditions may differ. Where two headings read alike, the source gives them in different places.
Columns and labels:
[1] = system: PC3 cells; experiment: Trans-well migration and invasion of PC3 cells co-cultured with pre-treated WPMY-1 cells; format: cell-based, human; settings: co-culture with Olaparib-pretreated WPMY-1, 20 h, basal and ADT
Method: For co-culture migration and invasion assays, 8×10^4 WPMY-1 cells were plated onto the lower chamber of a 24 well plate in DMEN containing 10% FBS (basal conditions) or 10% charcoal stripped FBS (ADT conditions) and vehicle (DMSO) or Olaparib 10 μM or Olaparib 10 μM+PEGPH20 2.5 μg/ml for 48 hours. 5×10^4 PC3 were seeded in a transwell chamber (Corning Biocoat control inserts) or in a transwell invasion chamber (Corning BioCoat Matrigel Invasion Chambers), both with 8 μm membrane. PC3 were allowed to migrate or invade for 20 hours at 37° C., 5% CO2. Cells were fixed in cold methanol and stained with crystal violet.

[2] = system: WPMY-1 cells; experiment: Autophagy activation by LC3 lipidation in WPMY-1 cells; format: cell-based, human; settings: with lysosomal inhibitors
Description: To knock out PARP-1 in WPMY-1 cells, single-guide RNA sequences targeting PARP-1 exon2 were purchased from Synthego and transduced into WPMY-1 cells with recombinant Streptococcus pyogenes Cas9 protein (Truecut Cas9 Protein v2, Thermo), using the Neon Transfection System 1 (Invitrogen) following the manufacturer's protocol and single clones were expanded and screened by protein immunoblotting. To perform AP1-A binding site editing in the SQSTM promoter in WPMY-1 cells, single-guide RNA sequences targeting the human AP1-A binding site (Synthego) was transduced into cells with a Cas9 protein and a single-stranded donor oligonucleotide (ssODN, IDT) using Neon Electroporation System. Single clones were expanded and screened for AP1-A editing by Sanger sequencing. A point mutation to disrupt the API enhancer element in the p62 promoter was introduced by Site Directed Mutagenesis (Stratagene). Knockdown of MCT1, MCT4, FOS, PARP1, PARP2, CD38, ATG5, and SIRT1-7 genes in WPMY-1 cells were achieved by siRNA transfection using Lipofectamine RNAiMAX Transfection Reagent (Invitrogen). […]
Cells for protein analysis were lysed in RIPA buffer (20 mM Tris-HCl, […], 2 mM EDTA, 1% Triton-X, 10% glycerol, 0.1% SDS, and 0.5% sodium deoxycholate) with phosphatase and protease inhibitors. […] Protein concentration in lysates was determined by using Protein Assay Kit (Bio-Rad). […]

[3] = system: RM1-BoMe3 cells on femur pieces; experiment: Bone-in-culture array (BICA) with RM1-BoMe3 cells; format: cell-based, mouse; settings: bone pre-treated with Olaparib 20 μM 48 h, ADT conditions
Method: 8-week-old C57B16 male mice were euthanized, and lower limb bone were collected. Femur epiphyses were dissected and fragmented in 4 pieces by sterilized micro dissecting scissors. Bone pieces were aligned into low-attachment 96-well plates pre-loaded with 200 μL DMEM/F12 supplemented with 5% charcoal striped FBS for ADT conditions. Bone pieces were treated with DMSO or Olaparib 20 μM for 48 h and then 5000 RM1-BoMe3-RFP-Luc cells were seed on top of the bone pieces. After 48 hours, pictures were taken using EVOS M5000 Imaging System and RFP^+ positive areas were measured using Fiji.

[4] = system: tumor-invaded lymph nodes and bones; experiment: Castrated TRAMP+/FVB mice, IHC of metastatic lymph nodes and bone; format: in vivo, mouse; settings: for αSMA expression and HA deposition in metastatic lymph nodes: 3 weeks
Method: Tissues from indicated mice were isolated, fixed in zinc buffered formalin overnight at 4° C., dehydrated, and embedded in paraffin. Sections (5 μm) were stained with hematoxylin and eosin (H&E). For immunohistochemistry, sections were deparaffinized, rehydrated, and then treated for antigen retrieval. After blocking in Protein Block Serum-Free solutions (DAKO), tissues were incubated with primary antibody overnight at 4° C. followed by incubation with biotinylated secondary antibody. Endogenous peroxidase was quenched in 3% H2O2 in water for 10 minutes at room temperature. Antibodies were visualized with avidin-biotin complex (Vectastain Elite; Vector Laboratories) using diaminobenzidine as the chromogen. Stained sections were analyzed with a Zeiss light microscope supplemented with Zen 3.3 Bule edition software.
For Olaparib treatment in mice, 13 weeks-old male TRAMP^+/FVB were surgical castrated, after 10 days n=16, were randomly distributed to receive vehicle, n=8, or Olaparib n=8 (5 mg/kg/, 5 days each, i.p.). Mice were euthanized 3 weeks after the initiation of the treatment. Prostate and other organs were collected and analyzed histologically.

## O=C(c1cc(Cc2n[nH]c(=O)c3ccccc23)ccc1F)N1CCN(C(=O)C2CC2)CC1 [Olaparib]
[1]
  migration and invasion of PC3 cells: increased migration and invasion of PCa cells
[2]
  autophagy activation (LC3 lipidation): induced autophagy activation; also recorded: induces autophagy
[3]
  seeding of cancer cells onto the bone (RFP+ area): increased tumor homing of RM1-BoMe3
[3]; listed as Ola
  seeding of cancer cells onto the bone (RFP+ area): significantly increased the seeding of cancer cells onto the bone
[4]
  HA in bone marrow stromal cells and growth plate: increased HA deposition in the growth plate and stromal areas
  αSMA expression and HA deposition in metastatic lymph nodes: increased stromal content upon Olaparib treatment
[4]; listed as Ola
  αSMA expression and HA deposition in metastatic lymph nodes: increased «SMA expression and higher hyaluronan (HA) deposition
  HA in bone marrow stromal cells and growth plate: higher levels of HA
